# Test results reported in PubChem BioAssay (NCI).
#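 Method: 48-hour compound exposure of cells in 96-well plates, five concentrations, linear interpolation of endpoints. Here, GI50 denotes the concentration required for 50% inhibition of growth. The concentration for full growth arrest is given as TGI.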
# What was measured:
# Assay in all cases: growth of human tumour cells (NCI), 48 h
# U251 CNS = system: U251 CNS
# NCI-H23 lung = system: NCI-H23 lung
# MALME-3M melanoma = system: MALME-3M melanoma
# SK-MEL-2 melanoma = system: SK-MEL-2 melanoma
# A549 NSCLC = system: A549 NSCLC
# ACHN renal = system: ACHN renal
# SW-620 colon = system: SW-620 colon
# IGROV1 ovarian = system: IGROV1 ovarian
# T-47D breast = system: T-47D breast
# HCT-15 colon = system: HCT-15 colon
# UACC-62 melanoma = system: UACC-62 melanoma
# KM12 colon = system: KM12 colon
# LOX IMVI melanoma = system: LOX IMVI melanoma
# SN12C renal = system: SN12C renal
# 786-0 renal = system: 786-0 renal
# A498 renal = system: A498 renal
# NCI/ADR-RES ovarian = system: NCI/ADR-RES ovarian
# UO-31 renal = system: UO-31 renal
# NCI-H226 lung = system: NCI-H226 lung
# DU-145 prostate = system: DU-145 prostate
# RPMI-8226 leukemia = system: RPMI-8226 leukemia
# BT-549 breast = system: BT-549 breast
# EKVX NSCLC = system: EKVX NSCLC
# HT29 colon = system: HT29 colon
# PC-3 prostate = system: PC-3 prostate
# MDA-MB-435 = system: MDA-MB-435
# SNB-19 CNS = system: SNB-19 CNS
compound,measurement,setting,value
COc1cc([C@@H]2c3cc4c(cc3[C@H](OC(C)=O)[C@H]3COC(=O)[C@H]23)OCO4)cc(OC)c1OC,GI50,U251 CNS,35.2 nM
same,TGI,U251 CNS,> 100 µM
same,GI50,NCI-H23 lung,53 nM
same,TGI,NCI-H23 lung,> 100 µM
same,GI50,MALME-3M melanoma,> 100 µM
same,TGI,MALME-3M melanoma,> 100 µM
same,GI50,SK-MEL-2 melanoma,27.6 µM
same,TGI,SK-MEL-2 melanoma,> 100 µM
same,GI50,A549 NSCLC,34.9 nM
same,TGI,A549 NSCLC,> 100 µM
same,GI50,ACHN renal,44 nM
same,TGI,ACHN renal,> 100 µM
same,GI50,SW-620 colon,33.4 nM
same,TGI,SW-620 colon,> 100 µM
same,GI50,IGROV1 ovarian,57.1 nM
same,TGI,IGROV1 ovarian,> 100 µM
same,GI50,T-47D breast,66.9 nM
same,TGI,T-47D breast,> 100 µM
same,GI50,HCT-15 colon,31.6 nM
same,TGI,HCT-15 colon,> 100 µM
same,GI50,UACC-62 melanoma,59.8 nM
same,TGI,UACC-62 melanoma,> 100 µM
same,GI50,KM12 colon,30.6 nM
same,TGI,KM12 colon,> 100 µM
same,GI50,LOX IMVI melanoma,29.3 nM
same,TGI,LOX IMVI melanoma,> 100 µM
same,GI50,SN12C renal,45.7 nM
same,TGI,SN12C renal,> 100 µM
same,GI50,786-0 renal,34.1 nM
same,TGI,786-0 renal,> 100 µM
same,GI50,A498 renal,13.9 nM
same,TGI,A498 renal,65 nM
same,GI50,NCI/ADR-RES ovarian,27.1 nM
same,TGI,NCI/ADR-RES ovarian,> 100 µM
same,GI50,UO-31 renal,80.8 nM
same,TGI,UO-31 renal,> 100 µM
same,GI50,NCI-H226 lung,97.5 nM
same,TGI,NCI-H226 lung,> 100 µM
same,GI50,DU-145 prostate,41.2 nM
same,TGI,DU-145 prostate,> 100 µM
same,GI50,RPMI-8226 leukemia,30 nM
same,TGI,RPMI-8226 leukemia,3.19 µM
same,GI50,BT-549 breast,31.1 nM
same,TGI,BT-549 breast,21.9 µM
same,GI50,EKVX NSCLC,56.8 nM
same,TGI,EKVX NSCLC,> 100 µM
same,GI50,HT29 colon,33.5 nM
same,TGI,HT29 colon,17.9 µM
same,GI50,PC-3 prostate,37.1 nM
same,TGI,PC-3 prostate,> 100 µM
same,GI50,MDA-MB-435,19.2 nM
same,TGI,MDA-MB-435,53.3 nM
same,GI50,SNB-19 CNS,43.6 nM
